Measurements taken from patent US20130022645A1, “PHARMACEUTICAL FORMULATIONS OF BISPHOSPHONATE WITH ENHANCED ORAL BIOAVAILABILITY” (DONG-A PHARM. CO., LTD., priority 2011, published 2013).
“Also recorded” adds a separate entry of the source.

Key:
[1] = In vitro inhibitory activity of phytic acid and EDTA against complexation of bisphosphonate with calcium (residual risedronate in solution by HPLC); format: physicochemical; conditions: for Inhibition of calcium-risedronate complexation: Tables 2 to 4, FIGS. 1 to 3
Protocol: Herein, in vitro tests in which after bisphosphonate and a chelating agent were simultaneously added to a solution containing a predetermined amount of calcium ions, correlation between time and residual bisphosphonate in the solution was determined were performed as explained in the following Reference Examples.
Various 50 mL solutions containing 50 mg, 10 mg and 5 mg of calcium in combination with 50 mg and 100 mg of EDTA, or […] as a chelating agent were prepared and used respectively in Reference Examples 1 to 15.
The mechanism in which a chelating agent facilitates the absorption of bisphosphonate can be explained as the degree to which the chelating inhibits bisphosphonate's activity of reacting with minerals (calcium, magnesium, etc.) in the gastrointestinal tract to form insoluble complexes. Thus, in vitro tests for assaying the inhibitory activity of phytic acid or EDTA against the complexation of bisphosphonate in calcium-containing solutions were conducted in Reference Test Example 1.
In a container with a cap, 25 mL of each of the solutions prepared in Reference Example 1 to 15 was placed, followed by agitation at 100 rpm for 120 min in an agitation bath maintained at 37° C. Approximately 1 mL of each of the solutions was taken at time points (immediately after preparation, and 15, 30, 60, 90 and 120 min after agitation) and allowed to pass through 0.45 μm PVDF membrane filters to remove precipitates. Residual resedronate in the solutions was quantitatively analyzed by HPLC.

intestinal mucosa = conditions: rabbits; cited from earlier work

Row | SMILES | Inhibition of calcium-risedronate complexation [1] | Effect on intestinal mucosa (intestinal mucosa) | Inhibitory activity against complexation compared with EDTA ([1]; in vitro tests) | Amount of phytic acid relative to EDTA needed for the same inhibition of calcium-risedronate complexation ([1]; in vitro, Reference Examples 6 to 10)
1 | O=C(O)CN(CCN(CC(=O)O)CC(=O)O)CC(=O)O [EDTA] | inhibit calcium-risedronate complexation in a dose-dependent manner | irritate the intestinal mucosa | – | –
2 | O=P(O)(O)O[C@H]1[C@H](OP(=O)(O)O)[C@@H](OP(=O)(O)O)[C@H](OP(=O)(O)O)[C@@H](OP(=O)(O)O)[C@H]1OP(=O)(O)O [phytic acid, inositol hexakisphosphate] | inhibit calcium-risedronate complexation in a dose-dependent manner | – | poorer in inhibitory activity against complexation than was EDTA | at least twice the amount of EDTA; also recorded: twice as large as that of EDTA
